Several values for one entry are separate records, joined by “and”; a condition that tells them apart may be missing. Identical values can stand only once. Entries after “also recorded” stand apart in the source; their conditions may differ. Like-named read-outs stand apart in the source and are kept apart here.
Experiments:
MDX mice = experiment: MDX mouse study: myofiber diameter after intramuscular leupeptin; format: in vivo; conditions: for Myofiber diameter, Anterior tibialis / Myofiber diameter, Diaphragm / Myofiber diameter, Gastrocnemius / Myofiber diameter, Soleus: mdx mice, ± SD
Procedure: It is well documented that as, observed in DMD and BMD, dystrophin is dysfunctional/absent in the murine MDX model of muscular dystrophy. […] A series of studies to test the ability of the calpain inhibitor, leupeptin, to delay and/or prevent features of calcium-induced damage to dystrophic myofibers was initiated. Control C57BL/10SNJ mice were treated with intramuscular injections of normal saline. The MDX mice were treated intramuscularly with either normal saline or 12 mg/kg leupeptin or 18 mg/kg leupeptin twice daily. All injections were delivered in the hind-limbs in various locations to avoid muscle damage due to repeated injections at the same location. The gastrocnemius, soleus, anterior tibialis, and diaphragm muscles were examined in all animals.

Duchenne patients = experiment: Preliminary safety trial of oral leupeptin in DMD children; format: in vivo
Procedure: Leupeptin's low toxicity, non-immunogenicity and stability profile have made it a potential drug for eventual human use. In this regard, a preliminary safety trial of leupeptin in seven Italian DMD children with ages varying from 7-10 was performed. The trial was approved by the Italian Ministry of Health and the leupeptin supplied by the Nippon Kayaku Co., Japan. […] During the process of muscle degeneration, muscle cells break open and their contents find their way into the bloodstream. […] CK levels can be slightly elevated (500 U/L) in some nerve disorders, or grossly elevated (5,000 to 15,000 U/L) in DMD or inflammatory myopathies. Importantly the significant decline in CK levels after treatment with leupeptin indicates a significant improvement (lessening of muscle breakdown) in these individuals, especially in the child given 100 mg twice daily.

[1] = test system: rat hind limb muscle (sciatic nerve denervation); conditions: for % loss (muscle atrophy due to denervation): rat
Procedure: Denervation was carried out on one of the hind limb sciatic nerves of the rat. Denervation was allowed to proceed for 7 days. Either leupeptin or CLA was injected 2×/day in forelimb muscle for seven days. The non-denervated hind limb was used as the control. Leupeptin and/or CLA were injected into alternating forelimb muscles for a period of seven days after which, animals were sacrificed, muscles excised and weighed.

[2] = Monkey study, oral leupeptin: hematology, blood clotting, serum biochemistry; format: in vivo; conditions: monkeys, oral leupeptin 3, 6, 12, 18 mg/kg twice daily for 6 months after nerve repair
Procedure: Subsequent to the above studies another series of experiments were performed on the monkeys to assess another route of leupeptin administration in these animals (8). In this regard, oral delivery of leupeptin, after median nerve transection and epineural nerve repair, was studied for its potential benefits to neuromuscular recovery. […] When plasma leupeptin concentrations were 3 mg or greater, morphologic and functional motor recovery were facilitated after nerve repair.
Hematology/blood chemistry. Blood was drawn from the femoral vein at 1, 3, 4, 5, and 7 months postoperatively. Complete blood counts, clotting parameters, and serum chemistries in control animals and in animals after oral leupeptin administration at 3, 6, 12, and 18 mg/kg were quantified. Values were determined for hemoglobin, hematocrit, WBC, RBC, MCV, MCH, MCHC, differential (polymorphonuclear leukocytes, lymphocytes, monocytes, eosinophils, basophils), platelets, prothrombin time, partial thromboplastin time, glucose, urea nitrogen, creatinine, total protein, albumin, total bilirubin, alkaline phosphatase, SGPT, SGOT, lactic dehydrogenase, cholesterol, calcium, phosphorus, sodium, potassium, chloride, A/G, BUN/creatinine, globulin, amylase.

[3] = 12 mg/kg leupeptin intramuscularly twice daily
[4] = 18 mg/kg leupeptin intramuscularly twice daily

CC(=O)N[C@@H](CC(C)C)C(=O)N[C@@H](CC(C)C)C(=O)N[C@H](C=O)CCCNC(=N)N [Leupeptin]
increase in myofiber diameter vs untreated MDX muscle (MDX mice; anterior tibialis, 12 mg/kg): 35% | increase in myofiber diameter vs untreated MDX muscle (MDX mice; anterior tibialis, 18 mg/kg): 36% | increase in myofiber diameter vs untreated MDX muscle (MDX mice; diaphragm, 12 mg/kg): 25% | increase in myofiber diameter vs untreated MDX muscle (MDX mice; diaphragm, 18 mg/kg): 25% | increase in myofiber diameter vs untreated MDX muscle (MDX mice; gastrocnemius, 12 mg/kg): 37% | increase in myofiber diameter vs untreated MDX muscle (MDX mice; gastrocnemius, 18 mg/kg): 39% | Myofiber diameter, Anterior tibialis (MDX mice; [3]): 37.5 ± 2.8 µm | Myofiber diameter, Diaphragm (MDX mice; [3]): 21.8 ± 0.9 µm | Myofiber diameter, Gastrocnemius (MDX mice; [3]): 32.9 ± 2.6 µm | Myofiber diameter, Soleus (MDX mice; [3]): 24.7 ± 1.8 µm | Myofiber diameter, Anterior tibialis (MDX mice; [4]): 38.3 ± 1.3 µm | Myofiber diameter, Diaphragm (MDX mice; [4]): 21.7 ± 1.8 µm | Myofiber diameter, Gastrocnemius (MDX mice; [4]): 34 ± 2.7 µm | Myofiber diameter, Soleus (MDX mice; [4]): 25.5 ± 2.3 µm | increase in myofiber diameter vs untreated MDX muscle (MDX mice; soleus, 12 mg/kg): 22% | increase in myofiber diameter vs untreated MDX muscle (MDX mice; soleus, 18 mg/kg): 25% | muscle function tests vs start of trial (Duchenne patients; DMD children, at 6 months and one year): little decline in muscle strength | blood chemistries over the year (Duchenne patients; DMD children, oral leupeptin for one year): no abnormalities | CREATINE KINASE After 1 yr. (Duchenne patients; Duchenne patient, oral leupeptin 100 mg twice daily): 375 Units/100 ml | CREATINE KINASE After 1 yr. (Duchenne patients; Duchenne patients (one line per patient), oral leupeptin 50 mg twice daily): 2,500 Units/100 ml (2×) and 4,100 Units/100 ml and 2,700 Units/100 ml and 3,300 Units/100 ml and 3,500 Units/100 ml | tolerability / adverse effects (Duchenne patients; in vivo, po): well tolerated | % loss (muscle atrophy due to denervation) ([1]; 1.5 mg/kg injected 2x/day for seven days): 30.9 ± 4% | % loss (muscle atrophy due to denervation) ([1]; 15.0 mg/kg injected 2x/day for seven days): 2.6 ± 0.3% | health / toxic effect in denervation study ([1]; rats, seven days of injections): remained healthy without any apparent negative toxic effect | hematology, blood clotting and serum biochemistry [2]: no adverse effects; also recorded: no significant differences
